{"source": "patent US9018248B2", "about": "“Fatty acid derivatives of catechins and methods of their use” (Genesis Group Inc., priority 2010, dated 2015)", "assay": "Reducing power (Fe3+-Fe2+ transformation)", "details": "test compounds 1 mM in 95% ethanol, ascorbic acid equivalents", "experimental": "An ORAC (Oxygen Radical Absorbance Capacity) assay was carried out using a Fluostar Optima plate reader (BMG Labtech, Durham, N.C.) equipped with an incubator and two injector pumps. A modified method for lipophilic antioxidants was followed, in which randomly methylated cyclodextrin (RMCD) was used as water solubility enhancer, as described by Huang et al, J. Agric. Food Chem., 2002, 50, 1815-1821. Trolox standards (6.25-50 μM) and samples (0.25 μM) were dissolved in acetone/water (1:1, v/v) containing 7% RMCD. Fluorescein and […] [2,2′-azobis(2-aminopropane)dihydrochloride] were used as the probe and radical generator, respectively. […] Fluorescence was measured at an excitation wavelength of 485 nm and emission of 520 nm. […] (3b) Reducing Power The reducing power of EGCG and its derivatives (compounds 1a-1c) was determined according to Oyaizu (1986). […] The content was mixed well and the absorbance was recorded at 700 nm. Higher absorbance of the reaction mixture indicates greater reducing power. […] (3c) Metal Chelation The metal chelation capacity was measured following a procedure by Decker E. A. et al., J. Agric. […] The absorbance was measured afterwards at 562 nm. A blank without ferrozine was run for each compound, since the antioxidant-Fe^2+ complex gives a colour that might interfere with the absorbance reading. […] The spectrum was recorded after 1 min. […]"}
{"smiles": "O=C(O[C@@H]1Cc2c(O)cc(O)cc2O[C@@H]1c1cc(O)c(O)c(O)c1)c1cc(O)c(O)c(O)c1", "note": "[EGCG, Epigallocatechin gallate, reference compound]", "values": [{"measurement": "Reducing power relative to ascorbic acid", "value": "highest reducing power"}]}
